Laboratory results from US6455045B1, “Immunogenic compounds with in particular an anti-cytokine effect, preparation process, pharmaceutical compositions and kits containing them” (priority 1991, dated 2002).
No end group written: not given here.

Key:
[1] = system: T-cells originating from fresh human blood; format: cell-based
[2] = system: HIV-1 env bands (gp160, gp120, gp41); test: Western blot (Abott HIV-1 detection kit) with serums of peptide-immunized mice; format: in vivo; conditions: 15 μg per injection days 0, 30, 60, day 70
Description: Four batches of five mice were chosen to receive the peptides SI Nos. 1, 2, 6, 10 respectively.
The peptides prepared as described in Example 2 were injected on days 0, 30, 60 in a quantity of 15 μg per injection. On day 70 the mice were sacrificed, their T-cells were isolated (spleen and ganglia) and their serum was stored.

Row | Substance | activation of T-cells (incorporation of labelled thymidine) [1] | Western blot bands showing a signal [2]
1 | His-Glu-Asp-Ile-Ile-Ser-Leu-Trp-Asp-Gln-Ser-Leu-Lys [SI No. 6] | low activation according to a dose-effect curve | gp60 and gp120 bands showed a signal
2 | QLLLNGSLAEEE [SI No. 10] | low activation according to a dose-effect curve | gp60 and gp120 bands showed a signal
3 | SI No. 1: peptide SI No. 1, a or b form not stated; prepared in proteosomes as in Example 2 (probably 1b); HIV-1 gag P7 region (IARNCRAPRKKG) | – | gp60 and gp120 bands showed a signal
4 | Cys-Ser-Ala-Thr-Glu-Lys-Leu-Trp-Val-Thr-Val-Tyr-Tyr [SI No. 7] | low activation according to a dose-effect curve | –
5 | Cys-Gln-His-Leu-Leu-Gln-Leu-Thr-Val-Trp-Gly-Ile-Lys-Glu or Gln-Leu-Glu Gln-Ala-Arg-Ile-Leu-Ala-Val-Glu-Arg-Tyr-Leu-Lys-Asp-Gln [SI No. 5] | low activation according to a dose-effect curve | –
6 | SI No. 2: peptide SI No. 2, a or b form not stated; prepared in proteosomes as in Example 2 (probably 2b); HIV-1 gp41 region 735-753 (DRPEGIEEEGGERDRDRS) | – | gp160 and gp41
